Tests used:
[1] = system: Acute Liver Damage associated with Centrilobular Necrosis (carbon tetrachloride); test: Protective effect on acute liver damage associated with centrilobular necrosis (carbon tetrachloride model); format: in vivo, mice (four-week-old male, dd strain); conditions: 250 mg/kg oral 6 h before CCl4, average of 5 to 6 mice; for p-GPT (plasma glutamic-pyruvic transaminase activity): 24 h after CCl4, values over 1,000 regarded as 1,000; for Liver Damage Index: 0 normal, 2 slightly recognized, 4 clearly observable damage, 6 heavy damage
Description: Carbon tetrachloride (CCl4) administration induces centrilobular necrosis of the liver associated with loss of diphosphopyridine nucleotide, hepatic glycogen, coenzyme A and increase in neutral fat. Release of several enzymes from the hepatocytes, and increases of enzyme activities in the plasma are recognized as the result of the damage of the liver. A suitable means for evaluating the degree of damage induced by CCl4 or the degree of protection afforded by drugs is to study the plasma glutamic-pyruvic transaminase (p-GPT) activity.
Method: The test compounds were dissolved or suspended in olive oil and administered orally at the dose of 250 mg/kg to the mice (Four-week-old male mice-dd strain). After 6 hours, CCl4 was administered orally (0.05 ml/kg as olive oil solution). Animals were killed 24 hours after CCl4 administration, and the liver was grossly observed. The plasma was obtained by centrifugation. Activities of p-GPT were determined by the method of Reitman and Frankel and expressed in Karmen units.
Score for liver damage was as follows: […]
4 Clearly observable damage
Each figure indicates average of 5 to 6 mice. Values of p-GPT over 1,000 Karmen unit regarded as 1,000 for calculation of average for convenience.

[2] = system: bile flow and biliary salt; test: Cholagogic action: bile flow and excretion of biliary salt; format: in vivo, male rat (4 week-aged, SD-JCL strain); conditions: 200 mg/kg oral; for bile flow / excretion of biliary salt: before treatment = 100
Experimental: The male rat (4 week-aged, SD-JCL strain) was anesthetized with sodium pentobarbital (37.5 mg/kg, intraperitoneal injection). The abdominal cavity was opened through a midline incision. The common bile duct was catheterized with polyethylene tube o.d. 0.8 mm. The catheter was brought to the outside through the abdominal incision wound prior to closing. Bile was collected from the catheter continuously with time intervals of one hour. The quantity of bile produced in one hour was determined by weighing and that of biliary salt was determined by enzymatic method (Ikagaku Jikkenho Koza 1B, Biological Constituents II, edited by Tamio YAMAKAWA). The amount of biliary salts was represented as cholic acid equivalent.
In the representation of the results, the quantities of bile and biliary salts produced in one hour prior to the administration of drug were taken as 100. The compound of this invention was orally administered at the dose of 200 mg/kg. As reference anethol trithion was used.

[3] = Effect on glucose metabolism (blood sugar after glucose load); format: in vivo, mice; conditions: for Blood Sugar: 250 mg/kg oral 6 h before glucose 4.0 g/kg
Experimental: The test compounds dissolved in olive oil and administered orally at the dose of 250 mg/kg to the mice. After 6 hours, 4.0 g/kg of glucose was orally administered. The same amount of glucose was given to the control animals. 0.02 ml of blood was taken from caudal vein of the mice at 30, 60, 90 and 120 min. after glucose administration. Blood sugar was measured by the procedure of Somogyi-Nelson. Number of animals used was 5 to 6 mice for each treatment.

[4] = system: fatty liver (carbon tetrachloride); test: Therapeutic effect on fatty liver (carbon tetrachloride model); format: in vivo, male rat (35 week-old, SD strain)
Experimental: Carbon tetrachloride also induces fatty liver, but the picture of disease differs from the case of ethionine-induced fatty liver. Carbon tetrachloride is generally considered to damage microsome and thereby to inhibit protein synthesis and induce fatty liver.
Carbon tetrachloride was subscutaneously administered to 35 week-old male rat (SD strain) for 4 days at the dose of 1 ml/kg. The treated animals were left for 3 days after the last administration to maximize the manifestation of fatty liver.
Administration of the compounds of this invention was commenced on the fourth day after the administration of carbon tetrachloride was completed. It was orally given everyday for 10 days at the dose of 50 or 250 mg/kg. On the 11th day, the animals were sacrificed. The therapeutic effect was evaluated by determining the content of lipid in the liver (triglyceride and total lipid) and examining the histopathological changes. Triglyceride and total lipid were determined colorimetrically by chromotropic acid method and Bragdon's oxidation method, respectively.
Indices for the histopathological change is as follows.

[5] = 50 mg/kg oral everyday for 10 days
[6] = 250 mg/kg oral everyday for 10 days

SMILES	p-GPT (plasma glutamic-pyruvic transaminase activity) [1] [Karmen units]	Liver Damage Index [1]	also measured
CCOC(=O)C(C(=O)OC)=C1SCCS1 [Compound 18]	240	1.4	–
COC(=O)C(C(=O)OC(C)C)=C1SCCS1 [Compound 19, Methyl isopropyl 1,3-dithiolan-2-ylidene malonate]	89	1.0	–
COC(=O)C(C(=O)OCC(C)C)=C1SCCS1 [Compound 20]	62	0.2	bile flow ([2]; 1 hour after treatment): 113±4.3; excretion of biliary salt ([2]; 1 hour after treatment): 104±11; bile flow ([2]; 2 hours after treatment): 112±8.2; excretion of biliary salt ([2]; 2 hours after treatment): 119±13; bile flow ([2]; 3 hours after treatment): 106±6.3; excretion of biliary salt ([2]; 3 hours after treatment): 120±17; bile flow ([2]; 4 hours after treatment): 113±8.8; excretion of biliary salt ([2]; 4 hours after treatment): 113±18; bile flow ([2]; 5 hours after treatment): 93±3.8; excretion of biliary salt ([2]; 5 hours after treatment): 82±7.3; Amount of total biliary salts excreted for 5 hours relative to control ([2]; versus control): 1.55 times; Quantity of total excreted bile for 5 hours relative to control ([2]; versus control): 1.14 times
CC(C)COC(=O)C(C(=O)OC(C)C)=C1SCCS1 [Compound 23]	102	1.0	–
CCOCCOC(=O)C(C(=O)OC(C)C)=C1SCCS1 [Compound 24]	152	1.2	Blood Sugar (percent of 0 min value) ([3]; 0 min): 100%; Blood Sugar ([3]; 0 min): 135 ± 13.2 mg/dL; Blood Sugar ([3]; 30 min): 248 ± 20.2 mg/dL; Blood Sugar ([3]; 60 min): 214 ± 18.8 mg/dL; Blood Sugar ([3]; 90 min): 173 ± 24.4 mg/dL; Blood Sugar ([3]; 120 min): 140 ± 16.3 mg/dL; Blood Sugar (percent of 0 min value) ([3]; 30 min): 184%; Blood Sugar (percent of 0 min value) ([3]; 60 min): 158%; Blood Sugar (percent of 0 min value) ([3]; 90 min): 128%; Blood Sugar (percent of 0 min value) ([3]; 120 min): 104%
CCOCCOC(=O)C(C(=O)OCC)=C1SCCS1 [Compound 25]	85	1.0	–
CCOC(=O)C(C(=O)SC(C)C)=C1SCCS1 [Compound 27]	18	0.4	–
CCCCSC(=O)C(C(=O)OCC)=C1SCCS1 [Compound 28]	31	0.8	–
COC(=O)C(C(=O)OC)=C1SCC[S+]1[O-] (centres unmarked) [Compound 29]	222	0.6	–
CC(C)COC(=O)C(C(=O)OCC(C)C)=C1SCC[S+]1[O-] (centres unmarked) [Compound 32]	180	1.0	Total lipid [4, 5]: 112.4 ± 12.3 mg/g-liver; Triglyceride [4, 5]: 48.3 ± 7.6 mg/g-liver; Total lipid [4, 6]: 77.2 ± 8.7 mg/g-liver; Triglyceride [4, 6]: 26.3 ± 4.2 mg/g-liver
CC(C)(C)OC(=O)C(C(=O)OC(C)(C)C)=C1SCC[S+]1[O-] (centres unmarked) [Compound 33]	212	1.4	–
COC(=O)C(C(=O)OCC(C)C)=C1SCC[S+]1[O-] (centres unmarked) [Compound 34]	102	1.0	–
CCOC(=O)C(C(=O)OC(C)C)=C1SCC[S+]1[O-] (centres unmarked) [Compound 35]	152	0.8	–
CCOCCOC(=O)C(C(=O)OC(C)C)=C1SCC[S+]1[O-] (centres unmarked) [Compound 36]	210	1.4	–
NC(=O)CCCCC1CCSS1 (centres unmarked) [Thioctic acid amide, thioctic acid amide, reference compound]	763	4.8	–
